Laboratory results reported in the Kinase Knowledgebase extract (Sharma et al. 2016).
pIC50: −log10 of the molar value.

Assays:
[1] = molecular target: EGFR (Human), P00533 [T790M/L858R]; assay: Enzyme Assay
[2] = molecular target: EGFR (human), P00533 [L858R]; assay: Enzyme Assay
[3] = molecular target: EGFR (human), P00533 [WT]
EGFR (human), P00533 [WT], sequence (P00533 whole entry, looked up): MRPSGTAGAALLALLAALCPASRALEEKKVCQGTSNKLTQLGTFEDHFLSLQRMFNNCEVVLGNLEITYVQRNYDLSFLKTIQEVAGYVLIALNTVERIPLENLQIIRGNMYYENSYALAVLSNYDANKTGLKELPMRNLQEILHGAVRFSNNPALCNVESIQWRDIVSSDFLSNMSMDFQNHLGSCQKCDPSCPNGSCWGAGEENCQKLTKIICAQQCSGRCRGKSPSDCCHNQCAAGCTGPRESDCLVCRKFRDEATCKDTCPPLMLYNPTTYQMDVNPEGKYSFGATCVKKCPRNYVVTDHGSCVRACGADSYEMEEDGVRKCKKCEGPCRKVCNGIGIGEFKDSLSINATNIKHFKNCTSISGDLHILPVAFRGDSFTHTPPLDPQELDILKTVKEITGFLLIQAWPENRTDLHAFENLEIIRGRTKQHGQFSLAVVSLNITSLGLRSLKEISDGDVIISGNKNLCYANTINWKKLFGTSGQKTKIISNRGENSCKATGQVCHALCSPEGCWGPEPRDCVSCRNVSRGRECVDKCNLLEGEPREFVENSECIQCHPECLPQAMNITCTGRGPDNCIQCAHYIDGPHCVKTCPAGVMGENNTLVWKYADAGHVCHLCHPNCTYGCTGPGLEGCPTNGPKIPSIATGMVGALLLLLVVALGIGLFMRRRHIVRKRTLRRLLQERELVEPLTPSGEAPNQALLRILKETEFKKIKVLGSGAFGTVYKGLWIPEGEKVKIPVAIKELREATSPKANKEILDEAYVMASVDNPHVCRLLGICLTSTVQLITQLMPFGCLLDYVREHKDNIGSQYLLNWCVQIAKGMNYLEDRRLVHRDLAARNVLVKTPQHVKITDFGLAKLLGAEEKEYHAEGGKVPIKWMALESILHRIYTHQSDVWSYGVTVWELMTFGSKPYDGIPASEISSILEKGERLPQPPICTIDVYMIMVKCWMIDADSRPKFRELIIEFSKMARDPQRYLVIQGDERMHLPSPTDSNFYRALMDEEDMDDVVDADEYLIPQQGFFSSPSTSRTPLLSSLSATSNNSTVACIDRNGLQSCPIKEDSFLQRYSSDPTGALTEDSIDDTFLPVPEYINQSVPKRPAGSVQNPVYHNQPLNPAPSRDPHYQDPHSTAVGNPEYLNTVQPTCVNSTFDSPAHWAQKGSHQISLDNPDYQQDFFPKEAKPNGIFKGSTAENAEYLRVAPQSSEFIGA

EGFR (Human), P00533 [T790M/L858R], sequence (P00533 whole entry T790M/L858R, looked up): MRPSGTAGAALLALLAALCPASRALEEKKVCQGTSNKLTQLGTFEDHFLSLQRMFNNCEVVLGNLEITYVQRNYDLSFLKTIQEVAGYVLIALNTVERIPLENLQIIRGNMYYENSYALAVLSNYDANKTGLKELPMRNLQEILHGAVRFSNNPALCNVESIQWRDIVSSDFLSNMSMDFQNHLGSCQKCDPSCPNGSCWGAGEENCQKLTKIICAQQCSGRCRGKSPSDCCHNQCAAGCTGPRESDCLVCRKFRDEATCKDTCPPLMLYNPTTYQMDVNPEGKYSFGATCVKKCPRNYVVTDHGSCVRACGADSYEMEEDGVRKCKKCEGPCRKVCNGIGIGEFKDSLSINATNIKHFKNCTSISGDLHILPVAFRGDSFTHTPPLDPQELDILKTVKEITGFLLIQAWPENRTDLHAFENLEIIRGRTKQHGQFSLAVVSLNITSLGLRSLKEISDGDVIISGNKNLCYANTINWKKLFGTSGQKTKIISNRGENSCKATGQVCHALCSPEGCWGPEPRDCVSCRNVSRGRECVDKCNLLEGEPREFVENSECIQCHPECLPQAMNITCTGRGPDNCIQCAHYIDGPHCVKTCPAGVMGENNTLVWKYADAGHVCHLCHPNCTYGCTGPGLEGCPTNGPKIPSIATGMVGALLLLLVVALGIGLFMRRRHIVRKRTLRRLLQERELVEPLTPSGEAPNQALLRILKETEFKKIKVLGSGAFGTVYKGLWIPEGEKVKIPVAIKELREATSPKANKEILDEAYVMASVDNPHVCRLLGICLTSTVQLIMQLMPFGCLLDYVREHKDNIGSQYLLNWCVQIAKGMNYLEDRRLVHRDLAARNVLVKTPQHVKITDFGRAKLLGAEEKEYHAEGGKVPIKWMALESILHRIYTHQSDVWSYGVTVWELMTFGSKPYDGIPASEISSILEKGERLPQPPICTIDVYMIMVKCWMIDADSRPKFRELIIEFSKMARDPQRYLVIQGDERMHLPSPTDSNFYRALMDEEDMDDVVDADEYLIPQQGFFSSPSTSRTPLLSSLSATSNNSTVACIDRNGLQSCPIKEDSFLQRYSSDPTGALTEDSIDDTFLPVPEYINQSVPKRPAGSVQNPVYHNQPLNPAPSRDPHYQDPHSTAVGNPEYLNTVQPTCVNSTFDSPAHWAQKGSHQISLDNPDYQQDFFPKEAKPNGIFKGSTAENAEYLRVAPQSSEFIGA
EGFR (human), P00533 [L858R], sequence (P00533 whole entry L858R, looked up): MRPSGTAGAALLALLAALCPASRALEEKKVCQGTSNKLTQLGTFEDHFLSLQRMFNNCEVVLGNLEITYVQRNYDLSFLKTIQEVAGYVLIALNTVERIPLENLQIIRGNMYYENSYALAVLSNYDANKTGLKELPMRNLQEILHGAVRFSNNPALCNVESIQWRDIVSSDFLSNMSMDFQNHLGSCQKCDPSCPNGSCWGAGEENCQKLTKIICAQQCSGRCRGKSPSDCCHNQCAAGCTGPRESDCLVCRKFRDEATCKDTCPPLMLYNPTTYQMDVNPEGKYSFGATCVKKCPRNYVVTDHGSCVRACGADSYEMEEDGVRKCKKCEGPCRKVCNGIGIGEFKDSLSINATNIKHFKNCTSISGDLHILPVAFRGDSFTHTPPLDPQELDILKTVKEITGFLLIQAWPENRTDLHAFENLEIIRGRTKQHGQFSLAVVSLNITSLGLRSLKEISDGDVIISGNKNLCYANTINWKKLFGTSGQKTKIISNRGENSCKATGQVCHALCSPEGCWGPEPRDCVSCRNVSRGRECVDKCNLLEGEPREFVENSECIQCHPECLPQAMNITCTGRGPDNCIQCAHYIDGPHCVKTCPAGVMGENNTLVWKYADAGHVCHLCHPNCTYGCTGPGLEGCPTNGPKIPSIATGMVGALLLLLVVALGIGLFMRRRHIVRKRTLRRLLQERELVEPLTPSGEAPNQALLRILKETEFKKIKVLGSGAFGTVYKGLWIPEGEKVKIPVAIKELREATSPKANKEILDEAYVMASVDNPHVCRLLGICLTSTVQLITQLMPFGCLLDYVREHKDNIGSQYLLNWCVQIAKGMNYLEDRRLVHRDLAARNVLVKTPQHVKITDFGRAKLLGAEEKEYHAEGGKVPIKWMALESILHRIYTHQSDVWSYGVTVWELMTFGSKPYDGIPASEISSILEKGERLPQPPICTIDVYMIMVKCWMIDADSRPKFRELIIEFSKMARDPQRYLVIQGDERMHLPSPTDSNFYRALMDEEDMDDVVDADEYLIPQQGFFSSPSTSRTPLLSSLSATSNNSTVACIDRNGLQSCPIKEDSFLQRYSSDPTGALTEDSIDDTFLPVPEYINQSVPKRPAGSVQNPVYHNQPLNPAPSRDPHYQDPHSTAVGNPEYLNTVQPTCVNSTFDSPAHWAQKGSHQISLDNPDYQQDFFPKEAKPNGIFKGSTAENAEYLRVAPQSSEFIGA

| SMILES | pIC50 [1] | pIC50 [2] | pIC50 [3] |
| --- | --- | --- | --- |
| CN(C)[C@H]1CCN(Cc2ccc(C(=O)N[C@@H]3[C@H]4Oc5ccc(Oc6ccnc7c6CCC(=O)N7)cc5[C@@H]34)cc2C(F)(F)F)C1 | 9.52 | 9.52 | – |
| CCCCCCCCCCCC(=O)N[C@@H]1[C@H]2Oc3ccc(Oc4ccnc5c4CCC(=O)N5)cc3[C@@H]12 | – | – | 8.05 |
| CN(C)[C@@H]1CCN(Cc2ccc(C(=O)N[C@@H]3[C@H]4Oc5ccc(Oc6ccnc7c6CCC(=O)N7)cc5[C@@H]34)cc2C(F)(F)F)C1 | 8.51 | 9.17 | – |
| O=C(C=Cc1cccc(C(F)(F)F)c1)N[C@@H]1[C@H]2Oc3ccc(Oc4ccnc5c4CCC(=O)N5)cc3[C@@H]12 | 5.94 | 7.17 | – |
| Cc1cc(C(=O)N[C@@H]2[C@H]3Oc4ccc(Oc5ccnc6c5CCC(=O)N6)cc4[C@@H]23)ccc1CN1CCN(C)CC1 | 8.51 | 9.30 | 8.82 |
| CN(C)C1CCN(Cc2ccc(C(=O)N[C@@H]3[C@H]4Oc5ccc(Oc6ccnc7c6CCC(=O)N7)cc5[C@@H]34)cc2C(F)(F)F)CC1 | 9.38 | 9.57 | – |

Now from value to molecule:

| pIC50 [1] | pIC50 [2] | pIC50 [3] | SMILES |
| --- | --- | --- | --- |
| 9.31 | 9.54 | – | CN1CCN(Cc2ccc(C(=O)N[C@@H]3[C@H]4Oc5ccc(Oc6ccnc7c6COC(=O)N7)cc5[C@@H]34)cc2C(F)(F)F)CC1 |
| 7.49 | 7.92 | – | CN1CCN(CCOc2ccc(C(=O)N[C@@H]3[C@H]4Oc5ccc(Oc6ccnc7c6CCC(=O)N7)cc5[C@@H]34)cc2C(F)(F)F)CC1 |
| 9.12 | 9.59 | – | O=C1CCc2c(Oc3ccc4c(c3)[C@H]3[C@H](NC(=O)c5ccc(CN6CCN(CCO)CC6)c(C(F)(F)F)c5)[C@H]3O4)ccnc2N1 |
